≈ marks a conversion by molar mass, not a printed value.
Key:
[1] = test system: Enterococcus faecalis ATCC51299, vancomycin-resistant strain; test: MIC, broth microdilution; type: cell-based; conditions: Enterococcus faecalis ATCC51299, vancomycin-resistant; read-out: MIC E. f. 51299
Experimental: (§1) MICs of the derivatives were determined by the micro broth dilution method according to the American Clinical and Laboratory Standards Institute (CLSI) standards. Briefly, 2-fold serial dilutions of target compounds were prepared in 96-well plates containing TSB broth. An equal volume of bacterial suspension (10^6 CFU/mL) was then pipetted into each well, and the mixture was incubated at 37 °C for 24 h. […] All biological experiments were repeated three times.

[2] = test system: Enterococcus faecium ATCC51559, vancomycin-resistant strain; test: MIC, broth microdilution; type: cell-based; conditions: Enterococcus faecium ATCC51559, vancomycin-resistant; read-out: MIC E. f. 51559
Experimental: as §1

[3] = test system: S. aureus; test: MIC, summary over the S. aureus strains tested; type: cell-based; conditions: Staphylococcus aureus; over the three S. aureus strains tested; read-out: MICs against S. aureus
Experimental: (§2) All target derivatives were assessed for their in vitro antibacterial activities using a broth microdilution assay to test their minimum inhibitory concentrations (MICs) against six Gram-positive strains (S. aureus ATCC31007, S. aureus ATCC25923, S. aureus ATCC43300, E. faecalis ATCC29212, B. subtilis ATCC9372, and S. epidermidis ATCC12228) and four Gram-negative strains (A. baumannii ATCC19606, K. pneumonia ATCC10031, E. coli ATCC25922, and P. aeruginosa ATCC27853). These compounds were also evaluated for their hemolytic activities and membrane selectivity by determining their HC50 (the concentration required to lyse 50% of red blood cells) and SI (HC50/MICs) values, respectively, and vancomycin was used as the positive drug.
as §1

[4] = test system: red blood cells; test: Hemolysis assay; type: cell-based, Sheep; conditions: concentration required to lyse 50% of red blood cells; 37 °C, 1 h
Experimental: as §2
To further detect the hemolytic toxicity and therapeutic potential of these derivatives, we proceeded to examine the hemolytic activities and membrane selectivity of these derivatives. The HC50 value was defined as the concentration needed for a compound to lyse 50% of red blood cells, and it is often used to evaluate the hemolytic toxicity to eukaryotic cells. […] The selectivity index (SI) was calculated by HC50/MICs of S. aureus ATCC43300 and was used to assess the potency and safety of the compounds. […] Thus, compound 9h was selected as a representative molecule for the in-depth in vitro and in vivo studies.
Sheep blood was used to isolate red blood cells (RBCs), which were then resuspended in 1× PBS (5%). The compounds were dissolved in PBS to give an initial concentration of 5.12 mg/mL, compound solution (100 μL) was added to the first well of a 96-well plate, two-fold serial dilutions of compounds were prepared in 96-well plates, and then 150 μL of 5% RBC suspension was added to each well. This was followed by incubation at 37 °C for 1 h. After incubation, the plate was centrifuged (3500 rpm, 5 min), and 100 μL of supernatant solution from each well was carefully pipetted into a new plate. The absorbance values were measured at 540 nm. Erythrocyte hemolysis rate = (Absorbancecompound – Absorbance negative control)/(Absorbance1% Triton X-100 − Absorbance negative control) × 100%. All biological experiments were repeated three times.

[5] = test system: Enterococcus faecalis ATCC29212, vancomycin-susceptible strain; test: MIC, broth microdilution; type: cell-based; conditions: Enterococcus faecalis ATCC29212; read-out: MIC E. f. 29212
Experimental: as §2, §1

[6] = test system: Escherichia coli ATCC25922, penicillin-susceptible strain; test: MIC, broth microdilution; type: cell-based; conditions: Escherichia coli ATCC25922; read-out: MIC E. c. 25922
Experimental: as §2, §1

[7] = test system: Klebsiella pneumonia ATCC10031; test: MIC, broth microdilution; type: cell-based; conditions: Klebsiella pneumoniae; Klebsiella pneumonia ATCC10031; read-out: MIC K. p. 10031
Experimental: as §2, §1

[8] = test system: Acinetobacter baumannii ATCC19606; test: MIC, broth microdilution; type: cell-based; conditions: Acinetobacter baumannii ATCC19606; read-out: MIC A. b. 19606
Experimental: as §2, §1

[9] = test system: Staphylococcus aureus ATCC25923, erythromycin-susceptible strain; test: MIC, broth microdilution; type: cell-based; conditions: Staphylococcus aureus ATCC25923; read-out: MIC S. a. 25923
Experimental: as §2, §1

[10] = test system: Staphylococcus aureus ATCC31007, penicillin-resistant strain; test: MIC, broth microdilution; type: cell-based; conditions: Staphylococcus aureus ATCC31007; read-out: MIC S. a. 31007
Experimental: as §2, §1

[11] = test system: Pseudomonas aeruginosa ATCC27853, penicillin-susceptible strain; test: MIC, broth microdilution; type: cell-based; conditions: Pseudomonas aeruginosa ATCC27853; read-out: MIC P. a. 27853
Experimental: as §2, §1

[12] = test system: Staphylococcus epidermidis ATCC12228, erythromycin-susceptible strain; test: MIC, broth microdilution; type: cell-based; conditions: Staphylococcus epidermidis ATCC12228; read-out: MIC S. e. 12228
Experimental: as §2, §1

[13] = test system: Bacillus subtilis ATCC9372, penicillin-susceptible strain; test: MIC, broth microdilution; type: cell-based; conditions: Bacillus subtilis ATCC9372; read-out: MIC B. s. 9372
Experimental: as §2, §1

[14] = test system: Staphylococcus aureus ATCC43300, methicillin-resistant strain; test: microbe, parasite or virus in culture; type: cell-based; conditions: ATCC 43300 / MRSA; Staphylococcus aureus ATCC43300 (MRSA); read-out: MIC S. a 43300
Experimental: as §2, §1

[15] = test system: S. aureus ATCC43300 biofilm formation; conditions: 4 μg/mL
Experimental: Bacterial biofilms created by the aggregation of bacteria is considered as one of the main reasons for the development of drug resistance. […] Subsequently, we further assessed the efficiency of 9h to eradicate the preformed biofilm. Matured S. aureus biofilm (grown for 24 h) was treated with compound 9h, and the rate of biofilm disruption was then assessed by the crystal violet staining assay.
Biofilm inhibition assay: S. aureus ATCC43300 was cultured (37 °C, 200 rpm) in MHB broth for 5 h and diluted to 1 × 10^6 CFU/mL. […] The planktonic supernatant cells were discarded and washed with PBS three times. Then, methanol (150 µL) was added to each well for 30 min. After discarding methanol, 0.1% crystal violet solution (150 µL) was added, and biofilms were stained for 15 min. Next, crystal violet solution was removed and washed with PBS three times. Finally, ethanol (150 µL) was pipetted into the wells, and the OD values were measured at 575 nm. The biofilm inhibition (%) = (ODcompound − ODblank)/(ODpositive control − ODblank) × 100%.

[16] = test system: Gram-positive strains tested; test: MIC, summary over the Gram-positive strains tested; type: cell-based; conditions: read-out: MICs against the Gram-positive strains tested, range over the Gram-positive panel
Experimental: as §2, §1

SMILES | MIC [1] [µg/mL] | MIC [2] [µg/mL] | MIC [3] [µg/mL] | HC50 [4] [µg/mL] | MIC [5] [µg/mL] | MIC [6] [µg/mL] | MIC [7] [µg/mL] | MIC [8] [µg/mL] | MIC [9] [µg/mL] | MIC [10] [µg/mL] | MIC [11] [µg/mL] | MIC [12] [µg/mL] | MIC [13] [µg/mL] | MIC [14] [µg/mL] | inhibition of S. aureus biofilm formation [15] [%] | MIC [16] [µg/mL]
CC(=O)c1ccc2c(c1OCCCNCCCN1CCCC1)C=CC(C)(CCC=C(C)C)O2 (stereo not shown) [Compound 5h] | 32 (≈ 70.4 µM) | 32 (≈ 70.4 µM) | 8 (≈ 17.6 µM) | 84.7 | 8 (≈ 17.6 µM) | 8 (≈ 17.6 µM) | 8 (≈ 17.6 µM) | 4 (≈ 8.8 µM) | 8 (≈ 17.6 µM) | 8 (≈ 17.6 µM) | 16 (≈ 35.2 µM) | 4 (≈ 8.8 µM) | 8 (≈ 17.6 µM) | 8 (≈ 17.6 µM) |  | 
CC[C@H](C)[C@H](NC(=O)[C@H](CCCCN)NC(=O)[C@H](CCC(=O)O)NC(=O)[C@H](CCCCN)NC(=O)[C@H](CO)NC(=O)[C@H](CCCCN)NC(=O)[C@H](CCCNC(=N)N)NC(=O)[C@H](Cc1ccccc1)NC(=O)[C@H](Cc1ccccc1)NC(=O)[C@H](CC(=O)O)NC(=O)CNC(=O)[C@H](CC(C)C)NC(=O)[C@@H](N)CC(C)C)C(=O)NCC(=O)N[C@@H](CCCCN)C(=O)N[C@@H](CCC(=O)O)C(=O)N[C@@H](Cc1ccccc1)C(=O)N[C@@H](CCCCN)C(=O)N[C@@H](CCCNC(=N)N)C(=O)N[C@H](C(=O)N[C@H](C(=O)N[C@@H](CCC(N)=O)C(=O)N[C@@H](CCCNC(=N)N)C(=O)N[C@H](C(=O)N[C@@H](CCCCN)C(=O)N[C@@H](CC(=O)O)C(=O)N[C@@H](Cc1ccccc1)C(=O)N[C@@H](CC(C)C)C(=O)N[C@@H](CCCNC(=N)N)C(=O)N[C@@H](CC(N)=O)C(=O)N[C@@H](CC(C)C)C(=O)N[C@H](C(=O)N1CCC[C@H]1C(=O)N[C@@H](CCCNC(=N)N)C(=O)N[C@H](C(=O)N[C@@H](CCC(=O)O)C(=O)N[C@@H](CO)C(=O)O)[C@@H](C)O)C(C)C)[C@@H](C)CC)C(C)C)[C@@H](C)CC [LL-37, reference compound] |  |  |  |  |  |  |  |  |  |  |  |  |  |  | 55.41 | 
CC[N+](CC)(CC)CCCOc1c2c(c3c(c1C(C)=O)OC(C)(CCC=C(C)C)C=C3)OC(C)(CCC=C(C)C)C=C2 (stereo not shown) [Compound 9a, 3-((6-Acetyl-2,8-dimethyl-2,8-bis(4-methylpent-3-en-1-yl)-2H,8H-pyrano[2,3-f]chromen-5-yl)oxy)-N,N,N-triethylpropan-1-aminium] | 4 | 4 | 2 to 4 | 40.4 | 4 | > 128 | > 128 | 128 | 2 | 4 | > 128 | 2 | 1 | 4 |  | 
CC(=O)c1c(OCCCSC(=N)N)c2c(c3c1OC(C)(CCC=C(C)C)C=C3)OC(C)(CCC=C(C)C)C=C2 (stereo not shown) [Compound 9e, 2-(3-((6-Acetyl-2,8-dimethyl-2,8-bis(4-methylpent-3-en-1-yl)-2H,8H-pyrano[2,3-f]chromen-5-yl)oxy)propyl)isothiouronium] | > 128 | > 128 |  | >1280 | 64 (≈ 116 µM) | > 128 | > 128 | > 128 | 8 (≈ 14.5 µM) | 128 (≈ 232 µM) | > 128 | 128 (≈ 232 µM) | 64 (≈ 116 µM) | 64 (≈ 116 µM) |  | > 64
CC[N+](CC)(CC)CCCOc1c(C(C)=O)ccc2c1C=CC(C)(CCC=C(C)C)O2 (stereo not shown) [Compound 5a, 3-((6-Acetyl-2-methyl-2-(4-methylpent-3-en-1-yl)-2H-chromen-5-yl)oxy)-N,N,N-triethylpropan-1-aminium] | 16 | 16 | 8 to 128 | 571.5 | 64 | > 128 | 128 | > 128 | 8 | 128 | > 128 | 64 | 64 | 64 |  | 
CCN(CC)CCCOc1c2c(c3c(c1C(C)=O)OC(C)(CCC=C(C)C)C=C3)OC(C)(CCC=C(C)C)C=C2 (stereo not shown) [Compound 9c, 1-(5-(3-(Diethylamino)propoxy)-2,8-dimethyl-2,8-bis(4-methylpent-3-en-1-yl)-2H,8H-pyrano[2,3-f]chromen-6-yl)ethan-1-one] | 8 (≈ 14.6 µM) | 4 (≈ 7.28 µM) | 2 to 4 (≈ 3.64 to 7.28 µM) | 187.6 | 1 (≈ 1.82 µM) | > 128 | > 128 | > 128 | 2 (≈ 3.64 µM) | 2 (≈ 3.64 µM) | > 128 | 1 (≈ 1.82 µM) | 2 (≈ 3.64 µM) | 4 (≈ 7.28 µM) |  | 
CC(=O)c1c(OCCCN2CC(C)OC(C)C2)c2c(c3c1OC(C)(CCC=C(C)C)C=C3)OC(C)(CCC=C(C)C)C=C2 (stereo not shown) [Compound 9d, 1-(5-(3-(2,6-Dimethylmorpholino)propoxy)-2,8-dimethyl-2,8-bis(4-methylpent-3-en-1-yl)-2H,8H-pyrano[2,3-f]chromen-6-yl)ethan-1-one] | > 128 | > 128 |  | >1280 | > 128 | > 128 | > 128 | > 128 | > 128 | > 128 | > 128 | > 128 | > 128 | > 128 |  | > 64

— paper PMC11350758, “Development of Xanthoangelol-Derived Compounds with Membrane-Disrupting Effects against Gram-Positive Bacteria” (Antibiotics, 2024)
